pIC50: −log10 of the molar value. In brackets after ≈: the same amount, converted by molar mass. Activity calls are given as the source filed them. The calls are words filed in the database; no cut-off is given here.
Tests used:
[1] = test system: Staphylococcus aureus; experiment: Antibacterial activity against Staphylococcus aureus ATCC 29213 assessed as inhibition of bacterial growth by CLSI based continuous dilution method; type: functional
[2] = test system: Staphylococcus aureus; experiment: Antibacterial activity against methicillin-resistant Staphylococcus aureus assessed as inhibition of bacterial growth by CLSI based continuous dilution method; type: functional
[3] = test system: Enterococcus faecalis; experiment: Antibacterial activity against Enterococcus faecalis assessed as inhibition of bacterial growth by CLSI based continuous dilution method; type: functional
[4] = test system: Staphylococcus aureus; experiment: Antibacterial activity against Staphylococcus aureus assessed as inhibition of bacterial growth by CLSI based continuous dilution method; type: functional
[5] = test system: Staphylococcus aureus; experiment: Antibacterial activity against Staphylococcus aureus ATCC 25923 assessed as inhibition of bacterial growth by CLSI based continuous dilution method; type: functional
[6] = test system: Klebsiella pneumoniae; experiment: Antibacterial activity against Klebsiella pneumoniae assessed as inhibition of bacterial growth by CLSI based continuous dilution method; type: functional
[7] = test system: Escherichia coli; experiment: Antibacterial activity against Escherichia coli assessed as inhibition of bacterial growth by CLSI based continuous dilution method; type: functional
[8] = test system: Escherichia coli; experiment: Antibacterial activity against Escherichia coli ATCC 25922 assessed as inhibition of bacterial growth by CLSI based continuous dilution method; type: functional
[9] = test system: Pseudomonas aeruginosa; experiment: Antibacterial activity against Pseudomonas aeruginosa assessed as inhibition of bacterial growth by CLSI based continuous dilution method; type: functional
[10] = test system: Pseudomonas aeruginosa; experiment: Antibacterial activity against Pseudomonas aeruginosa ATCC 27853 assessed as inhibition of bacterial growth by CLSI based continuous dilution method; type: functional
[11] = test system: Acinetobacter baumannii; experiment: Antibacterial activity against Acinetobacter baumannii assessed as inhibition of bacterial growth by CLSI based continuous dilution method; type: functional
[12] = test system: Pseudomonas aeruginosa; experiment: Potency index, ratio of Berberine MIC to test compound MIC for antibacterial activity against Pseudomonas aeruginosa assessed as inhibition of bacterial growth by CLSI based continuous dilution method; type: functional
[13] = test system: Pseudomonas aeruginosa; experiment: Potency index, ratio of Metronidazole MIC to test compound MIC for antibacterial activity against Pseudomonas aeruginosa assessed as inhibition of bacterial growth by CLSI based continuous dilution method; type: functional
[14] = test system: Pseudomonas aeruginosa; experiment: Potency index, ratio of norfloxacin MIC to test compound MIC for antibacterial activity against Pseudomonas aeruginosa assessed as inhibition of bacterial growth by CLSI based continuous dilution method; type: functional
[15] = test system: Aspergillus fumigatus; experiment: Antifungal activity against Aspergillus fumigatus assessed as inhibition of fungal growth by CLSI based continuous dilution method; type: functional, organism-based
[16] = Cytotoxicity against human HepG2 cells assessed as cell viability at 1 times MIC relative to control; type: toxicity, cell-based; settings: read-out: Activity
[17] = Cytotoxicity against human HepG2 cells assessed as reduction in cell viability; type: toxicity, cell-based
[18] = test system: Pseudomonas aeruginosa; experiment: Antibiofilm activity against Pseudomonas aeruginosa assessed as reduction in biofilm viability at 8 times MIC by crystal violet staining based assay relative to control; type: functional
[19] = test system: Pseudomonas aeruginosa; experiment: Antibiofilm activity against Pseudomonas aeruginosa assessed as reduction in biofilm viability at 0.5 to 8 times MIC by crystal violet staining based assay; type: functional, organism-based; settings: DDE = dose-dependent effect
[20] = test system: Pseudomonas aeruginosa; experiment: Induction of […] membrane potential depolarization in Pseudomonas aeruginosa assessed as fold increase in fluorescence intensity at 8 times MIC by DiSC35 dye based fluorescence assay; type: functional
[21] = test system: Cell membrane; experiment: Induction of outer membrane permeabilization in Pseudomonas aeruginosa assessed as increase in NPN uptake by measuring increase in fluorescence intensity at 0.5 to 8 times MIC by NPN-dye based fluorescence analysis; settings: DDE = dose-dependent effect
[22] = test system: Cell membrane; experiment: Induction of inner membrane permeabilization in Pseudomonas aeruginosa assessed as increase in PI uptake by measuring increase in fluorescence intensity at 0.5 to 8 times MIC by propidium iodide staining based fluorescence analysis; settings: DDE = dose-dependent effect
[23] = test system: Cell membrane; experiment: Induction of cell membrane permeabilization in Pseudomonas aeruginosa assessed as increase in number of cells with damaged membranes by measuring increase in red fluorescence at 1 times MIC measured for 10 mins by PI staining based fluorescence analysis
[24] = test system: Cell membrane; experiment: Disruption of membrane integrity in Pseudomonas aeruginosa assessed as reduction in intact bacterial cells by measuring reduction in fluorescence intensity at 0.5 to 8 times MIC by calcein-AM dye based assay
[25] = test system: Cell membrane; experiment: Disruption of membrane integrity in Pseudomonas aeruginosa assessed as increase in protein leakage by measuring reduction in fluorescence intensity at 0.5 to 8 times MIC incubated for 6 hrs by bradford assay
[26] = test system: Cell membrane; experiment: Disruption of membrane integrity in Pseudomonas aeruginosa assessed as increase in nucleic acid leakage by measuring fold reduction in optical density at 8 times MIC by absorption spectrometry analysis
[27] = test system: Pseudomonas aeruginosa; experiment: Induction of drug resistance in Pseudomonas aeruginosa assessed as reduction in susceptibility measured after 6 passages; type: functional
[28] = test system: Pseudomonas aeruginosa; experiment: Induction of drug resistance in Pseudomonas aeruginosa assessed as fold increase in MIC measured after 11 passages; type: functional

Compound	MIC [1]	MIC [2]	MIC [3]	MIC [4]	MIC [5]	MIC [6]	MIC [7]	MIC [8]	MIC [9]	MIC [10]	MIC [11]	Activity [15]	further results
Cc1ncc([N+](=O)[O-])n1CCO [METRONIDAZOLE]	1500 µM (≈ 256 µg/mL)	1500 µM (≈ 256 µg/mL)	748 µM (≈ 128 µg/mL)	1500 µM (≈ 256 µg/mL)	1500 µM (≈ 256 µg/mL)	374 µM (≈ 64 µg/mL)	1500 µM (≈ 256 µg/mL)	1500 µM (≈ 256 µg/mL)	1500 µM (≈ 256 µg/mL)	1500 µM (≈ 256 µg/mL)	1500 µM (≈ 256 µg/mL)	–	–
COc1cc(/C=N/OCc2ccccc2)c2c(c1OCC(O)Cn1c([N+](=O)[O-])cnc1C)CN1CCc3cc4c(cc3C1C2)OCO4 (centres undefined)	49 µM (≈ 31.4 µg/mL)	49 µM (≈ 31.4 µg/mL)	49 µM (≈ 31.4 µg/mL)	49 µM (≈ 31.4 µg/mL)	24 µM (≈ 15.4 µg/mL)	24 µM (≈ 15.4 µg/mL)	24 µM (≈ 15.4 µg/mL)	99 µM (≈ 63.5 µg/mL)	24 µM (≈ 15.4 µg/mL)	199 µM (≈ 128 µg/mL)	24 µM (≈ 15.4 µg/mL)	Active	Ratio [12]: 63; Ratio [13]: 62; Ratio [14]: 2; viability at 1 times MIC [16]: > 80%; pIC50 [17]: < 4.30; Activity [18]: 46.4%; Activity [19]: Dde; fold change (FC) [20]: 4; Activity [21]: Dde; Activity [22]: Dde; Activity [23]: Active; Activity [24]: Active; Activity [25]: Active; fold change (FC) [26]: 0.1
CCCCO/N=C/c1cc(OC)c(OCC(O)Cn2c([N+](=O)[O-])cnc2C)c2c1CC1c3cc4c(cc3CCN1C2)OCO4 (centres undefined)	843 µM (≈ 512 µg/mL)	843 µM (≈ 512 µg/mL)	843 µM (≈ 512 µg/mL)	843 µM (≈ 512 µg/mL)	843 µM (≈ 512 µg/mL)	843 µM (≈ 512 µg/mL)	843 µM (≈ 512 µg/mL)	843 µM (≈ 512 µg/mL)	843 µM (≈ 512 µg/mL)	843 µM (≈ 512 µg/mL)	843 µM (≈ 512 µg/mL)	Active	–
COc1cc(/C=N/O)c2c(c1OCC(O)Cn1c([N+](=O)[O-])cnc1C)CN1CCc3cc4c(cc3C1C2)OCO4 (centres undefined)	232 µM (≈ 128 µg/mL)	116 µM (≈ 64 µg/mL)	29 µM (≈ 16 µg/mL)	58 µM (≈ 32 µg/mL)	58 µM (≈ 32 µg/mL)	464 µM (≈ 256 µg/mL)	15 µM (≈ 8.27 µg/mL)	29 µM (≈ 16 µg/mL)	116 µM (≈ 64 µg/mL)	58 µM (≈ 32 µg/mL)	58 µM (≈ 32 µg/mL)	Active	–
CCCO/N=C/c1cc(OC)c(OCC(O)Cn2c([N+](=O)[O-])cnc2C)c2c1CC1c3cc4c(cc3CCN1C2)OCO4 (centres undefined)	863 µM (≈ 512 µg/mL)	863 µM (≈ 512 µg/mL)	863 µM (≈ 512 µg/mL)	863 µM (≈ 512 µg/mL)	215 µM (≈ 128 µg/mL)	863 µM (≈ 512 µg/mL)	863 µM (≈ 512 µg/mL)	215 µM (≈ 128 µg/mL)	863 µM (≈ 512 µg/mL)	863 µM (≈ 512 µg/mL)	863 µM (≈ 512 µg/mL)	Active	–
C=CCO/N=C/c1cc(OC)c(OCC(O)Cn2c([N+](=O)[O-])cnc2C)c2c1CC1c3cc4c(cc3CCN1C2)OCO4 (centres undefined)	216 µM (≈ 128 µg/mL)	54 µM (≈ 31.9 µg/mL)	216 µM (≈ 128 µg/mL)	108 µM (≈ 63.9 µg/mL)	54 µM (≈ 31.9 µg/mL)	54 µM (≈ 31.9 µg/mL)	433 µM (≈ 256 µg/mL)	216 µM (≈ 128 µg/mL)	216 µM (≈ 128 µg/mL)	54 µM (≈ 31.9 µg/mL)	216 µM (≈ 128 µg/mL)	Active	–
CCCCCCO/N=C/c1cc(OC)c(OCC(O)Cn2c([N+](=O)[O-])cnc2C)c2c1CC1c3cc4c(cc3CCN1C2)OCO4 (centres undefined)	805 µM (≈ 512 µg/mL)	805 µM (≈ 512 µg/mL)	805 µM (≈ 512 µg/mL)	805 µM (≈ 512 µg/mL)	50 µM (≈ 31.8 µg/mL)	805 µM (≈ 512 µg/mL)	805 µM (≈ 512 µg/mL)	805 µM (≈ 512 µg/mL)	805 µM (≈ 512 µg/mL)	805 µM (≈ 512 µg/mL)	805 µM (≈ 512 µg/mL)	Active	–
COc1ccc2cc3[n+](cc2c1OC)CCc1cc2c(cc1-3)OCO2 [BERBERINE]	190 µM	761 µM	380 µM	380 µM	380 µM	190 µM	380 µM	380 µM	1520 µM	380 µM	190 µM	–	–
COc1cc(/C=N/OC(C)(C)C)c2c(c1OCC(O)Cn1c([N+](=O)[O-])cnc1C)CN1CCc3cc4c(cc3C1C2)OCO4 (centres undefined)	211 µM (≈ 128 µg/mL)	52 µM (≈ 31.6 µg/mL)	211 µM (≈ 128 µg/mL)	105 µM (≈ 63.8 µg/mL)	52 µM (≈ 31.6 µg/mL)	52 µM (≈ 31.6 µg/mL)	422 µM (≈ 256 µg/mL)	211 µM (≈ 128 µg/mL)	211 µM (≈ 128 µg/mL)	52 µM (≈ 31.6 µg/mL)	211 µM (≈ 128 µg/mL)	Active	–
CCO/N=C/c1cc(OC)c(OCC(O)Cn2c([N+](=O)[O-])cnc2C)c2c1CC1c3cc4c(cc3CCN1C2)OCO4 (centres undefined)	883 µM (≈ 512 µg/mL)	883 µM (≈ 512 µg/mL)	883 µM (≈ 512 µg/mL)	883 µM (≈ 512 µg/mL)	883 µM (≈ 512 µg/mL)	883 µM (≈ 512 µg/mL)	883 µM (≈ 512 µg/mL)	883 µM (≈ 512 µg/mL)	883 µM (≈ 512 µg/mL)	883 µM (≈ 512 µg/mL)	883 µM (≈ 512 µg/mL)	Active	–
CCn1cc(C(=O)O)c(=O)c2cc(F)c(N3CCNCC3)cc21 [NORFLOXACIN]	3 µM (≈ 0.958 µg/mL)	25 µM (≈ 7.98 µg/mL)	6 µM (≈ 1.92 µg/mL)	25 µM (≈ 7.98 µg/mL)	100 µM (≈ 31.9 µg/mL)	25 µM (≈ 7.98 µg/mL)	50 µM (≈ 16 µg/mL)	25 µM (≈ 7.98 µg/mL)	50 µM (≈ 16 µg/mL)	12 µM (≈ 3.83 µg/mL)	25 µM (≈ 7.98 µg/mL)	–	Activity [27]: Active; fold change (FC) [28]: 8
CO/N=C/c1cc(OC)c(OCC(O)Cn2c([N+](=O)[O-])cnc2C)c2c1CC1c3cc4c(cc3CCN1C2)OCO4 (centres undefined)	905 µM (≈ 512 µg/mL)	905 µM (≈ 512 µg/mL)	226 µM (≈ 128 µg/mL)	452 µM (≈ 256 µg/mL)	56 µM (≈ 31.7 µg/mL)	905 µM (≈ 512 µg/mL)	905 µM (≈ 512 µg/mL)	905 µM (≈ 512 µg/mL)	905 µM (≈ 512 µg/mL)	113 µM (≈ 63.9 µg/mL)	905 µM (≈ 512 µg/mL)	Active	–
CCCCCO/N=C/c1cc(OC)c(OCC(O)Cn2c([N+](=O)[O-])cnc2C)c2c1CC1c3cc4c(cc3CCN1C2)OCO4 (centres undefined)	824 µM (≈ 512 µg/mL)	824 µM (≈ 512 µg/mL)	824 µM (≈ 512 µg/mL)	824 µM (≈ 512 µg/mL)	824 µM (≈ 512 µg/mL)	824 µM (≈ 512 µg/mL)	824 µM (≈ 512 µg/mL)	206 µM (≈ 128 µg/mL)	824 µM (≈ 512 µg/mL)	824 µM (≈ 512 µg/mL)	206 µM (≈ 128 µg/mL)	Active	–
